# Measurements from ChEMBL document CHEMBL5634112, “Synthesis and biological evaluation of fluoroquinolones containing a pyridoxine derivatives moiety” (Eur J Med Chem, 2023).
# Assays:
# [1] = tested on: Bacillus subtilis; assay: Antibacterial activity against Bacillus subtilis 168 assessed as reduction in microbial growth incubated for 24 hrs by broth microdilution method; assay type: functional
# [2] = tested on: Pseudomonas aeruginosa; assay: Antibacterial activity against Pseudomonas aeruginosa ATCC 27853 assessed as reduction in microbial growth incubated for 24 hrs by broth microdilution method; assay type: functional
# [3] = tested on: Salmonella typhimurium; assay: Antibacterial activity against Salmonella typhimurium TA100 assessed as reduction in microbial growth incubated for 24 hrs by broth microdilution method; assay type: functional, Salmonella enterica subsp. enterica serovar Typhimurium; conditions: Salmonella enterica
# [4] = Cytotoxicity against human CHL assessed as reduction in cell viability incubated for 72 hrs by MTT assay; assay type: toxicity, cell-based; conditions: CHL cells
# [5] = Cytotoxicity against human HSF assessed as reduction in cell viability incubated for 72 hrs by MTT assay; assay type: toxicity, cell-based; conditions: HSF cells
# [6] = Cytotoxicity against human MSC assessed as reduction in cell viability incubated for 72 hrs by MTT assay; assay type: toxicity, cell-based; conditions: MSC cells
# [7] = tested on: Staphylococcus aureus; assay: In vivo antibacterial activity against Staphylococcus aureus N-10 infected in Po dosed SHK mouse model of sepsis assessed as survival measured after 14 days; assay type: functional; conditions: N-10, 336 h, time 14 day
# [8] = tested on: Micrococcus luteus; assay: Antibacterial activity against clinical isolate Micrococcus luteus assessed as reduction in microbial growth incubated for 24 hrs by broth microdilution method; assay type: functional
# [9] = tested on: Staphylococcus aureus; assay: Antibacterial activity against clinical isolate Staphylococcus aureus 4721 assessed as reduction in microbial growth incubated for 24 hrs by broth microdilution method; assay type: functional
# [10] = tested on: Staphylococcus aureus; assay: Antibacterial activity against methicillin sensitive Staphylococcus aureus ATCC 29213 assessed as reduction in microbial growth incubated for 24 hrs by broth microdilution method; assay type: functional
# [11] = tested on: Staphylococcus epidermidis; assay: Antibacterial activity against clinical isolate Staphylococcus epidermidis assessed as reduction in microbial growth incubated for 24 hrs by broth microdilution method; assay type: functional
# [12] = tested on: Escherichia coli; assay: Antibacterial activity against Escherichia coli ATCC 25922 assessed as reduction in microbial growth incubated for 24 hrs by broth microdilution method; assay type: functional
# [13] = tested on: Staphylococcus auricularis; assay: Antibacterial activity against clinical isolate Staphylococcus auricularis NKC 7 assessed as reduction in microbial growth incubated for 24 hrs by broth microdilution method; assay type: functional
# [14] = tested on: Staphylococcus haemolyticus; assay: Antibacterial activity against clinical isolate Staphylococcus haemolyticus NKC 31/2 assessed as reduction in microbial growth incubated for 24 hrs by broth microdilution method; assay type: functional
# [15] = tested on: Staphylococcus epidermidis; assay: Antibacterial activity against clinical isolate Staphylococcus epidermidis NKC 37/1 assessed as reduction in microbial growth incubated for 24 hrs by broth microdilution method; assay type: functional
# [16] = tested on: Staphylococcus aureus; assay: Antibacterial activity against clinical isolate Staphylococcus aureus 1812 assessed as reduction in microbial growth incubated for 24 hrs by broth microdilution method; assay type: functional
# [17] = tested on: Staphylococcus aureus; assay: Antibacterial activity against clinical isolate methicillin resistant Staphylococcus aureus 4771 assessed as reduction in microbial growth incubated for 24 hrs by broth microdilution method; assay type: functional
# [18] = tested on: Staphylococcus haemolyticus; assay: Antibacterial activity against clinical isolate Staphylococcus haemolyticus 1464 assessed as reduction in microbial growth incubated for 24 hrs by broth microdilution method; assay type: functional
# [19] = tested on: Enterococcus faecalis; assay: Antibacterial activity against clinical isolate Enterococcus faecalis 1465 assessed as reduction in microbial growth incubated for 24 hrs by broth microdilution method; assay type: functional
# [20] = tested on: Escherichia coli; assay: Antibacterial activity against clinical isolate Escherichia coli NKC 1 assessed as reduction in microbial growth incubated for 24 hrs by broth microdilution method; assay type: functional
# [21] = tested on: Pseudomonas aeruginosa; assay: Antibacterial activity against clinical isolate Pseudomonas aeruginosa NKC 17 assessed as reduction in microbial growth incubated for 24 hrs by broth microdilution method; assay type: functional
# [22] = tested on: Cedecea davisae; assay: Antibacterial activity against clinical isolate Cedecea davisae 1813 assessed as reduction in microbial growth incubated for 24 hrs by broth microdilution method; assay type: functional
# [23] = tested on: Klebsiella pneumoniae; assay: Antibacterial activity against clinical isolate Klebsiella pneumoniae 1678 assessed as reduction in microbial growth incubated for 24 hrs by broth microdilution method; assay type: functional
# [24] = tested on: Klebsiella aerogenes; assay: Antibacterial activity against clinical isolate Enterobacter aerogenes NKC 8 assessed as reduction in microbial growth incubated for 24 hrs by broth microdilution method; assay type: functional
# [25] = Toxicity in po dosed male F1 C57Bl6 x CBA mouse assessed as lethal dose; assay type: organism-based; conditions: in vivo
# [26] = Toxicity in po dosed female F1 C57Bl6 x CBA mouse assessed as lethal dose; assay type: organism-based; conditions: in vivo
# [27] = Toxicity in po dosed rat assessed as lethal dose; assay type: organism-based; conditions: in vivo
# [28] = Toxicity in male rat assessed as mortality at 2000 mg/kg, po; assay type: organism-based; conditions: in vivo
# [29] = Toxicity in male F1 C57Bl6 x CBA mouse assessed as mortality at 1000 to 2000 mg/kg, po; assay type: organism-based; conditions: in vivo, dose 1000-2000 mg/kg
# [30] = Toxicity in male F1 C57Bl6 x CBA mouse assessed as mortality at 125 mg/kg, po; assay type: organism-based; conditions: in vivo
# [31] = Toxicity in female F1 C57Bl6 x CBA mouse assessed as mortality at 1000 mg/kg, po; assay type: organism-based; conditions: in vivo
# [32] = Toxicity in female F1 C57Bl6 x CBA mouse assessed as mortality at 125 mg/kg, po; assay type: organism-based; conditions: in vivo
# [33] = Toxicity in F1 C57Bl6 x CBA mouse assessed as mortality at 1000 to 2000 mg/kg, po relative to control; assay type: organism-based; conditions: in vivo, dose 1000-2000 mg/kg
# [34] = Toxicity in F1 C57Bl6 x CBA mouse assessed as mortality at […] 125 to 500 mg/kg, po relative to control; assay type: organism-based; conditions: in vivo, at 125 to 500 mg/kg, dose 125-500 mg/kg
# [35] = Toxicity in rat assessed as kidney darkening at 2000 mg/kg, po after 14 days; assay type: organism-based; conditions: in vivo, 336 h, time 14 day
# [36] = Toxicity in rat assessed as liver darkening at 2000 mg/kg, po after 14 days; assay type: organism-based; conditions: in vivo, 336 h, time 14 day
# [37] = Toxicity in F1 C57Bl6 x CBA mouse assessed as kidney darkening at 125 mg/kg, po after 14 days; assay type: organism-based; conditions: in vivo, 336 h, time 14 day
# [38] = Toxicity in F1 C57Bl6 x CBA mouse assessed as liver darkening at 125 mg/kg, po after 14 days; assay type: organism-based; conditions: in vivo, 336 h, time 14 day
# [39] = Genotoxicity in Salmonella typhimurium TA98 by Ames test; assay type: toxicity; conditions: salmonella enterica subsp. enterica serovar typhimurium
# [40] = Genotoxicity in Salmonella typhimurium TA100 by Ames test; assay type: toxicity; conditions: salmonella enterica subsp. enterica serovar typhimurium
# [41] = Genotoxicity in Salmonella typhimurium TA102 by Ames test; assay type: toxicity; conditions: salmonella enterica subsp. enterica serovar typhimurium
# [42] = molecular target: T1, DNA gyrase (Staphylococcus aureus, UniProt P0A0K8+P20831); assay: Inhibition of Staphylococcus aureus DNA gyrase using supercoiled pBR322 DNA as substrate incubated for 60 mins by ethidium bromide staining based agarose gel electrophoresis method; assay type: protein-complex assay
# [43] = molecular target: T1, DNA gyrase; assay: Inhibition of Staphylococcus aureus DNA gyrase using relaxed pBR322 DNA as substrate incubated for 30 mins by ethidium bromide staining based agarose gel electrophoresis method; assay type: protein-complex assay
# [44] = molecular target: Topoisomerase IV (Staphylococcus aureus, UniProt P0C1S7+P0C1U9); assay: Inhibition of Staphylococcus aureus topoisomerase-IV assessed as reduction in decatenation using kinetoplast DNA as substrate incubated for 30 mins by ethidium bromide staining based agarose gel electrophoresis method; assay type: protein-complex assay
structure (smiles),measurement,setting,value
O=C(O)c1cn(C2CC2)c2cc(N3CCNCC3)c(F)cc2c1=O [CIPROFLOXACIN],MIC,[1],0.5 µg/mL
same,MIC,[2],1 µg/mL
same,MIC,[3],1 µg/mL
same,CC50 at 72 h,[4],29.3 µg/mL
same,CC50 at 72 h,[5],52.8 µg/mL
same,CC50 at 72 h,[6],41.6 µg/mL
same,ED50,[7],11.2 mg/kg
COc1c(N2C[C@@H]3CCCN(Cc4cnc(C)c(O)c4C)[C@@H]3C2)c(F)cc2c(=O)c(C(=O)O)cn(C3CC3)c12.Cl.Cl,MIC,[8],0.5 µg/mL
same,MIC,[9],0.06 µg/mL
same,MIC,[1],0.5 µg/mL
same,MIC,[10],0.5 µg/mL
same,MIC,[11],0.5 µg/mL
same,MIC,[2],1 µg/mL
same,MIC,[12],2 µg/mL
same,MIC,[3],1 µg/mL
same,MIC,[13],0.03 µg/mL
same,MIC,[14],8 µg/mL
same,MIC,[15],0.06 µg/mL
same,MIC,[16],0.25 µg/mL
same,MIC,[17],0.06 µg/mL
same,MIC,[18],0.06 µg/mL
same,MIC,[19],4 µg/mL
same,MIC,[20],2 µg/mL
same,MIC,[21],64 µg/mL
same,MIC,[22],0.03 µg/mL
same,MIC,[23],64 µg/mL
same,MIC,[24],16 µg/mL
same,CC50 at 72 h,[4],8.22 µg/mL
same,CC50 at 72 h,[5],17.6 µg/mL
same,CC50 at 72 h,[6],12.7 µg/mL
same,LD50,[25],406 mg/kg
same,LD50,[26],541 mg/kg
same,LD50,[27],> 2000 mg/kg
same,Activity,[28],Non-Toxic
same,Activity,[29],Toxic
same,Activity,[30],Non-Toxic
same,Activity,[31],Toxic
same,Activity,[32],Non-Toxic
same,mortality,[33],> 80%
same,mortality,[34],0%
same,Activity,[35],Toxic
same,Activity,[36],Toxic
same,Activity,[37],Non-Toxic
same,Activity,[38],Non-Toxic
same,Activity,[39],Non-Toxic
same,Activity,[40],Non-Toxic
same,Activity,[41],Non-Toxic
same,IC50,[42],> 656 µM
same,IC50,[43],85.3 µM
same,IC50,[44],26.2 µM
CCCC1OCc2c(CN3CCC[C@H]4CN(c5c(F)cc6c(=O)c(C(=O)O)cn(C7CC7)c6c5OC)C[C@H]43)cnc(C)c2O1 (stereo partly drawn),MIC,[8],2 µg/mL
same,MIC,[9],2 µg/mL
same,MIC,[1],2 µg/mL
same,MIC,[10],2 µg/mL
same,MIC,[11],2 µg/mL
same,MIC,[2],> 64 µg/mL
same,MIC,[12],> 64 µg/mL
same,MIC,[3],4 µg/mL
same,MIC,[13],0.13 µg/mL
same,MIC,[14],64 µg/mL
same,MIC,[15],4 µg/mL
same,MIC,[16],4 µg/mL
same,MIC,[17],4 µg/mL
same,MIC,[18],2 µg/mL
same,MIC,[19],64 µg/mL
same,MIC,[20],4 µg/mL
same,MIC,[21],> 64 µg/mL
same,MIC,[22],2 µg/mL
same,MIC,[23],> 64 µg/mL
same,MIC,[24],64 µg/mL
same,CC50 at 72 h,[4],2.46 µg/mL
same,CC50 at 72 h,[5],2.34 µg/mL
same,CC50 at 72 h,[6],2.91 µg/mL
